Laboratory results: ChEMBL document CHEMBL2010751, “Synthesis of a novel suppressor of beta-cell apoptosis via diversity-oriented synthesis” (ACS Med Chem Lett, 2011)
The source made the active and inactive calls. The calls are words filed in the database; no cut-off is given here.

Legend:
[1] = Inhibition of IL-1beta, IFN-gamma and TNF-alpha-induced apoptosis of rat INS-1E cells assessed as restoring cell viability after 48 hrs by luciferase based CellTiter-Glo assay; type: functional
[2] = Inhibition of IL-1beta, IFN-gamma and TNF-alpha-induced apoptosis of rat INS-1E cells assessed as maximum activity to restoring cell viability after 48 hrs by luciferase based CellTiter-Glo assay; type: functional
[3] = system: INS-1E; test: Inhibition of IL-1beta, IFN-gamma and TNF-alpha-induced apoptosis of rat INS-1E cells assessed as decrease in caspase-3 activity after 48 hrs by luminescence assay; type: functional, cell-based
[4] = system: INS-1E; test: Inhibition of IL-1beta, IFN-gamma and TNF-alpha-induced apoptosis of rat INS-1E cells assessed as decrease in nitrite production after 48 hrs by Griess assay; type: functional, cell-based
[5] = system: INS-1E; test: Inhibition of IL-1beta, IFN-gamma and TNF-alpha-induced apoptosis of rat INS-1E cells assessed as restoration of mitochondrial membrane potential at 0.25 to 5 uM after 48 hrs by JC-1 staining analysis; type: functional, cell-based
[6] = system: INS-1E; test: Inhibition of IL-1beta, IFN-gamma and TNF-alpha-induced apoptosis of rat INS-1E cells assessed as glucose-stimulated insulin secretion at 5 uM after 48 hrs by ELISA; type: functional, cell-based

| SMILES | EC50 [1] | Activity [2] | inhibition [3] | inhibition [4] | inhibition [5] | inhibition [6] |
| --- | --- | --- | --- | --- | --- | --- |
| C[C@@H]1CN([C@@H](C)CO)C(=O)c2cccc(NC(=O)Nc3cccc(Cl)c3Cl)c2O[C@H]1CN(C)S(=O)(=O)c1ccc2c(c1)OCCO2 | > 20 µM | 0% | – | – | – | – |
| CC(C)N1C[C@@H](C)[C@H](CN(C)S(=O)(=O)c2ccc3c(c2)OCCO3)Oc2c(NC(=O)Nc3cccc4ccccc34)cccc2C1=O | 2.79 µM | 89% | – | – | – | – |
| COc1ccc(S(=O)(=O)N(C)C[C@@H]2Oc3c(NC(=O)NC4CCCc5ccccc54)cccc3C(=O)N([C@@H](C)CO)C[C@H]2C)cc1 (stereo partly drawn) | > 20 µM | 0% | – | – | – | – |
| C[C@@H]1CN([C@@H](C)CO)C(=O)c2cccc(NC(=O)Nc3cccc4ccccc34)c2O[C@H]1CN(C)S(=O)(=O)c1ccc(Oc2ccccc2)cc1 | > 20 µM | 0% | – | – | – | – |
| COc1cccc(S(=O)(=O)N(C)C[C@@H]2Oc3c(NC(=O)Nc4cccc5ccccc45)cccc3C(=O)N([C@@H](C)CO)C[C@H]2C)c1 | > 20 µM | 0% | – | – | – | – |
| C[C@@H]1CN([C@@H](C)CO)C(=O)c2cccc(NC(=O)Nc3cccc4ccccc34)c2O[C@H]1CN(C)S(=O)(=O)c1ccc2c(c1)OCCO2 | 0.78 µM | 99% | Dose-dependent effect | Dose-dependent effect | Active | Active |
| COc1ccc(S(=O)(=O)N(C)C[C@@H]2Oc3c(NC(=O)Nc4ccc5occc5c4)cccc3C(=O)N([C@@H](C)CO)C[C@H]2C)cc1 | > 20 µM | 0% | – | – | – | – |
| COc1ccc(S(=O)(=O)N(C)C[C@@H]2Oc3c(NC(=O)Nc4cccc5ccccc45)cccc3C(=O)N([C@@H](C)CO)C[C@H]2C)cc1C | 3.5 µM | 76% | – | – | – | – |
| COc1ccc(S(=O)(=O)N(C)C[C@@H]2Oc3c(NC(=O)Nc4cccc5ccccc45)cccc3C(=O)N(C(C)C)C[C@H]2C)cc1 | 3.06 µM | 76% | – | – | – | – |
| COc1ccc(S(=O)(=O)N(C)C[C@@H]2Oc3c(NC(=O)Nc4cccc5ccccc45)cccc3C(=O)N([C@@H](C)CO)C[C@H]2C)cc1 | 4.89 µM | 62% | – | – | – | – |
| COc1ccccc1S(=O)(=O)N(C)C[C@@H]1Oc2c(NC(=O)Nc3cccc4ccccc34)cccc2C(=O)N([C@@H](C)CO)C[C@H]1C | > 20 µM | 0% | – | – | – | – |
| COc1ccc(S(=O)(=O)N(C)C[C@@H]2Oc3c(NC(=O)Nc4cccc5c4CCCC5)cccc3C(=O)N([C@@H](C)CO)C[C@H]2C)cc1 | > 20 µM | 0% | – | – | – | – |
